Here are results for twelve compounds from patent US20260191968A1, “PROTAC DEGRADERS OF MLLT1 AND/OR MLLT3” (DARK BLUE THERAPEUTICS LTD, priority 2024, published 2026).

A value given as a limit tells only on which side of the number the result lay.

For one assay, the system named is MV4-11 cells. Kind of assay: MV4-11 cellular proliferative assay, Assay Format A (CellTiter-Glo, 120 hours). In kind it is cell-based. The following applies: Homo sapiens. Here is the method:
An MV4-11 proliferation assay was used to test the ability of compounds to reduce cell viability. MV4-11 cells (ATCC #CRL9591) were grown in IMDM medium (11510596, Gibco) supplemented with 10% fetal bovine serum (F7524, Gibco) and 1% Penicillin/Streptomycin (15140-122, Gibco) at 37° C. with 5% CO2. Cells were seeded in 384-well Elplasia plates (4447, Corning) at a density of 50 cells/well and treated with vehicle (DMSO) or compounds (10 serial semi-log dilutions, 30 μM as top concentration).
After 120 hours of treatment, cells were incubated for 10 min at RT with the CellTiter-Glo (CTG) reagent (G7571, Promega). Measurement of the luminescence signal was performed on a microplate reader (Ensight, PerkinElmer). CTG reagent measures the amount of ATP, which is directly proportional to the number of cells, to determine the number of viable cells in culture.
The data were analysed as follows:
where x is the measured raw signal value of a well, (cr) is the median of the measured signal values for the Central Reference (DMSO) wells on a plate, (sr) is the median of the measured signal values for the Scale Reference (reference compound) wells on a plate.
where the experimental set-up assumes the Hill parameters in certain ranges: S0~Central Reference (CR) from normalization (=Bottom), Sinf~Scale Reference (SR) from normalization (=Top), nHill~1, AC50~within the measured concentration range.
In general terms: In ATP-based viability assays light output follows the ATP content of the culture.

A further assay has as its target T1, MLLT1 (Homo sapiens, UniProt Q03111).
T1 construct: host or cells: MV4-11
T1 sequence (Q03111 1-559): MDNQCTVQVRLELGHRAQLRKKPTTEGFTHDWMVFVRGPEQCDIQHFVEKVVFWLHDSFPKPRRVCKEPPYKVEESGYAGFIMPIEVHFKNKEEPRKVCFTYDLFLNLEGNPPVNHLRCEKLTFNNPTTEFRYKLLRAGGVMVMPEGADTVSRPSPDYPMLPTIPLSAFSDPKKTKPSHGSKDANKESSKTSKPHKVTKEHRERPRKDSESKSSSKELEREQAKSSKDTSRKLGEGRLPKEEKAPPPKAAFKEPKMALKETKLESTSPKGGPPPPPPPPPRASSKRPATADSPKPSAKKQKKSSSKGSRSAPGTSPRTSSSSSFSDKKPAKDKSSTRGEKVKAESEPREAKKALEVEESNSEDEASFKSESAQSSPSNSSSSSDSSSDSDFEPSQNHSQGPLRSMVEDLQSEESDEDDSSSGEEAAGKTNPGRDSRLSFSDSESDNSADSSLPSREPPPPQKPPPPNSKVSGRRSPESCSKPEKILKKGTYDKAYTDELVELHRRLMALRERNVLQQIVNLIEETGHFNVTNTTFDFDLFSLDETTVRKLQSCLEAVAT
Description: MLLT1 degradation assay in MV4-11 cells (JESS chemiluminescent detection), three concentrations, 24 h. It counts as cell-based. The following applies: with respect to DMSO control. In a few lines:
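MV4-11 cells treated 24 h at 37° C, 5% CO2 with 1000, 100 and 10 nM compound (0.1% DMSO final). MLLT1 quantified by automated capillary chemiluminescent immunodetection; band peak area expressed as % degradation relative to DMSO control.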

The term IC50 denotes the concentration that inhibits the measured activity by half. The low end stands for inhibition by little substance, the high end for a need for much substance. The compound `C[C@H](C#Cc1cccc2c1CN(C1CCC(=O)NC1=O)C2=O)Oc1ccc(C(=O)Nc2cc3[nH]c([C@H]4CCCN4C)cc3cn2)cc1` (stereo partly drawn) [Example 25, 4-(((2R)-4-(2-(2,6-dioxopiperidin-3-yl)-1-oxoisoindolin-4-yl)but-3-yn-2-yl)oxy)-N-(2-((R)-1-methylpyrrolidin-2-yl)-1H-pyrrolo[3,2-c]pyridin-6-yl)benzamide] showed an IC50 with MV4-11 cells of at most 0.1 µM. On MLLT1, the “MLLT1% Degradation @ 0.01 μM” value is “A (Category A: A ≥ 75% degradation)”, the “MLLT1% Degradation @ 0.1 μM” value was “A (Category A: A ≥ 75% degradation)” and the “MLLT1% Degradation @ 1 μM” value is “A (Category A: A ≥ 75% degradation)”.

Take `CN1CCC[C@@H]1c1cc2cnc(NC(=O)c3ccc(OCC#Cc4cccc5c4CN(C4CCC(=O)NC4=O)C5=O)cc3F)cc2[nH]1` (stereo partly drawn) [Example 57, 4-((3-(2-(2,6-dioxopiperidin-3-yl)-1-oxoisoindolin-4-yl)prop-2-yn-1-yl)oxy)-2-fluoro-N-(2-((R)-1-methylpyrrolidin-2-yl)-1H-pyrrolo[3,2-c]pyridin-6-yl)benzamide]: the IC50 in the assay with MV4-11 cells is at most 0.1 µM. On MLLT1, the “MLLT1% Degradation @ 0.01 μM” value is “A (Category A: A ≥ 75% degradation)”, the “MLLT1% Degradation @ 0.1 μM” value is “A (Category A: A ≥ 75% degradation)” and the “MLLT1% Degradation @ 1 μM” value is recorded as “A (Category A: A ≥ 75% degradation)”.

In the assay on MV4-11 cells, `CN1CCC[C@@H]1c1cc2cnc(NC(=O)CCCC3CCN(c4cccc5c4C(=O)N(C4CCC(=O)NC4=O)C5=O)CC3)cc2[nH]1` (stereo partly drawn) [Example 41, 4-(1-(2-(2,6-dioxopiperidin-3-yl)-1,3-dioxoisoindolin-4-yl)piperidin-4-yl)-N-(2-((R)-1-methylpyrrolidin-2-yl)-1H-pyrrolo[3,2-c]pyridin-6-yl)butanamide] had an IC50 of at most 0.1 µM. At MLLT1, the “MLLT1% Degradation @ 0.01 μM” value is “B (Category B: 50% ≤ B < 75% degradation)”, the “MLLT1% Degradation @ 0.1 μM” value is “B (Category B: 50% ≤ B < 75% degradation)” and the “MLLT1% Degradation @ 1 μM” value is reported as “A (Category A: A ≥ 75% degradation)”.

For the compound `CN1CCC[C@@H]1c1cc2cnc(NC(=O)c3ccc(-c4cnn(CCCC#Cc5cccc6c5CN(C5CCC(=O)NC5=O)C6=O)c4)cc3)cc2[nH]1` (stereo partly drawn) [Example 21, 4-(1-(5-(2-(2,6-dioxopiperidin-3-yl)-1-oxoisoindolin-4-yl)pent-4-yn-1-yl)-1H-pyrazol-4-yl)-N-(2-((R)-1-methylpyrrolidin-2-yl)-1H-pyrrolo[3,2-c]pyridin-6-yl)benzamide], in the assay on MV4-11 cells, the half-maximal inhibitory concentration (IC50) is at most 0.1 µM. On MLLT1, the “MLLT1% Degradation @ 0.01 μM” value is reported as “A (Category A: A ≥ 75% degradation)”, the “MLLT1% Degradation @ 0.1 μM” value is “A (Category A: A ≥ 75% degradation)” and the “MLLT1% Degradation @ 1 μM” value was “B (Category B: 50% ≤ B < 75% degradation)”.

Consider `CN1CCC[C@@H]1c1cc2cnc(NC(=O)c3ccc(CCCNc4cccc5c4C(=O)N(C4CCC(=O)NC4=O)C5=O)cc3)cc2[nH]1` (stereo partly drawn) [Example 36, 4-(3-{[2-(2,6-dioxopiperidin-3-yl)-1,3-dioxoisoindol-4-yl]amino}propyl)-N-{2-[(2R)-1-methylpyrrolidin-2-yl]-1H-pyrrolo[3,2-c]pyridin-6-yl}benzamide], for which the 50% inhibitory concentration (IC50) in the assay on MV4-11 cells is at most 0.1 µM. On MLLT1, the “MLLT1% Degradation @ 0.01 μM” value is “A (Category A: A ≥ 75% degradation)”, the “MLLT1% Degradation @ 0.1 μM” value is given as “A (Category A: A ≥ 75% degradation)” and the “MLLT1% Degradation @ 1 μM” value is given as “A (Category A: A ≥ 75% degradation)”.

Take `CN1CCC[C@@H]1c1cc2cnc(NC(=O)c3cccc(CCCNc4cccc5c4C(=O)N(C4CCC(=O)NC4=O)C5=O)c3)cc2[nH]1` (stereo partly drawn) [Example 45, 3-(3-((2-(2,6-dioxopiperidin-3-yl)-1,3-dioxoisoindolin-4-yl)amino)propyl)-N-(2-((R)-1-methylpyrrolidin-2-yl)-1H-pyrrolo[3,2-c]pyridin-6-yl)benzamide]: the IC50 in the assay with MV4-11 cells is at most 0.1 µM. Further, at MLLT1, the “MLLT1% Degradation @ 0.01 μM” value was “A (Category A: A ≥ 75% degradation)”, the “MLLT1% Degradation @ 0.1 μM” value is given as “A (Category A: A ≥ 75% degradation)” and the “MLLT1% Degradation @ 1 μM” value was “A (Category A: A ≥ 75% degradation)”.

As to `CN1CCC[C@@H]1c1cc2cnc(NC(=O)CCCCCC3CCN(c4cccc5c4C(=O)N(C4CCC(=O)NC4=O)C5=O)CC3)cc2[nH]1` (stereo partly drawn) [Example 43, 6-(1-(2-(2,6-dioxopiperidin-3-yl)-1,3-dioxoisoindolin-4-yl)piperidin-4-yl)-N-(2-((R)-1-methylpyrrolidin-2-yl)-1H-pyrrolo[3,2-c]pyridin-6-yl)hexanamide], the IC50 in the assay with MV4-11 cells was at most 0.1 µM. Besides, on MLLT1, the “MLLT1% Degradation @ 0.1 μM” value was “A (Category A: A ≥ 75% degradation)” and the “MLLT1% Degradation @ 1 μM” value was “B (Category B: 50% ≤ B < 75% degradation)”.

In the assay on MV4-11 cells, `CN1CCC[C@@H]1c1cc2cnc(NC(=O)c3cccc(-c4cnn(CCCC5CCN(c6cccc7c6C(=O)N(C6CCC(=O)NC6=O)C7=O)CC5)c4)c3)cc2[nH]1` (stereo partly drawn) [Example 47, 3-(1-(3-(1-(2-(2,6-dioxopiperidin-3-yl)-1,3-dioxoisoindolin-4-yl)piperidin-4-yl)propyl)-1H-pyrazol-4-yl)-N-(2-((R)-1-methylpyrrolidin-2-yl)-1H-pyrrolo[3,2-c]pyridin-6-yl)benzamide] came in with an IC50 of at most 0.1 µM. Further, on MLLT1, the “MLLT1% Degradation @ 0.01 μM” value was “C (Category C: 25% ≤ C < 50% degradation)”, the “MLLT1% Degradation @ 0.1 μM” value is on record as “B (Category B: 50% ≤ B < 75% degradation)” and the “MLLT1% Degradation @ 1 μM” value is “A (Category A: A ≥ 75% degradation)”.

For the compound `CN1CCC[C@@H]1c1cc2cnc(NC(=O)CCCCCCNc3cccc4c3C(=O)N(C3CCC(=O)NC3=O)C4=O)cc2[nH]1` (stereo partly drawn) [Example 29, 7-{[2-(2,6-dioxopiperidin-3-yl)-1,3-dioxoisoindol-4-yl]amino}-N-{2-[(2R)-1-methylpyrrolidin-2-yl]-1H-pyrrolo[3,2-c]pyridin-6-yl}heptanamide], the IC50 with MV4-11 cells was at most 0.1 µM. Moreover, at MLLT1, the “MLLT1% Degradation @ 0.01 μM” value was “D (Category D: D < 25% degradation)”, the “MLLT1% Degradation @ 0.1 μM” value is “C (Category C: 25% ≤ C < 50% degradation)” and the “MLLT1% Degradation @ 1 μM” value is reported as “A (Category A: A ≥ 75% degradation)”.

Turning to `CN1CCC[C@@H]1c1cc2cnc(NC(=O)c3ccc(CCC#Cc4cccc5c4CN(C4CCC(=O)NC4=O)C5=O)cc3F)cc2[nH]1` (stereo partly drawn) [Example 54, 4-(4-(2-(2,6-dioxopiperidin-3-yl)-1-oxoisoindolin-4-yl)but-3-yn-1-yl)-2-fluoro-N-(2-((R)-1-methylpyrrolidin-2-yl)-1H-pyrrolo[3,2-c]pyridin-6-yl)benzamide], the IC50 in the assay with MV4-11 cells was at most 0.1 µM. On MLLT1, the “MLLT1% Degradation @ 0.01 μM” value is “A (Category A: A ≥ 75% degradation)”, the “MLLT1% Degradation @ 0.1 μM” value is “A (Category A: A ≥ 75% degradation)” and the “MLLT1% Degradation @ 1 μM” value is “B (Category B: 50% ≤ B < 75% degradation)”.

`CN1CCC[C@@H]1c1cc2cnc(NC(=O)c3ccc(CCC#Cc4cccc5c4CN(C4CCC(=O)NC4=O)C5=O)cc3)cc2[nH]1` (stereo partly drawn) [Example 52, 4-(4-(2-(2,6-dioxopiperidin-3-yl)-1-oxoisoindolin-4-yl)but-3-yn-1-yl)-N-(2-((R)-1-methylpyrrolidin-2-yl)-1H-pyrrolo[3,2-c]pyridin-6-yl)benzamide] yielded an IC50 with MV4-11 cells of at most 0.1 µM. For the same compound, at MLLT1, the “MLLT1% Degradation @ 0.01 μM” value is listed as “A (Category A: A ≥ 75% degradation)”, the “MLLT1% Degradation @ 0.1 μM” value is listed as “A (Category A: A ≥ 75% degradation)” and the “MLLT1% Degradation @ 1 μM” value is recorded as “B (Category B: 50% ≤ B < 75% degradation)”.

With `CN1CCC[C@@H]1c1cc2cnc(NC(=O)c3ccc(-c4cnn(CCCC#Cc5ccc6c(c5)CN(C5CCC(=O)NC5=O)C6=O)c4)cc3)cc2[nH]1` (stereo partly drawn) [Example 22, 4-(1-(5-(2-(2,6-dioxopiperidin-3-yl)-1-oxoisoindolin-5-yl)pent-4-yn-1-yl)-1H-pyrazol-4-yl)-N-(2-((R)-1-methylpyrrolidin-2-yl)-1H-pyrrolo[3,2-c]pyridin-6-yl)benzamide], the IC50 in the assay on MV4-11 cells was at most 0.1 µM. For the same compound, on MLLT1, the “MLLT1% Degradation @ 0.01 μM” value was “A (Category A: A ≥ 75% degradation)”, the “MLLT1% Degradation @ 0.1 μM” value is reported as “A (Category A: A ≥ 75% degradation)” and the “MLLT1% Degradation @ 1 μM” value is “A (Category A: A ≥ 75% degradation)”.
